Tests used:
A549/OPNluc cells = assay: WST assay (cell growth inhibition); format: cell-based; conditions: Homo sapiens, 48±4 hours, WST-1, read-out: IC50 (concentration for 50% inhibition of cell growth)
Description: A reporter vector pOPN1-luc obtained by inserting a human OPN promoter sequence (−765 to 23) into the multiple cloning site of pGL-3 basic vector (Promega) expresses luciferase when transfected into animal cells. This pOPN1-luc was transfected into a human non-small cell lung cancer-derived cell line A549 together with pPUR (Clontech) that expresses a puromycin resistance gene (puromycin-N-acetyl-transferase gene), and cells that could grow in a puromycin-supplemented medium and expressed luciferase were selected. The selected cells were named A549/OPNluc cells and used for observation of luciferase expression inhibitory effect under control of OPN promoter, as described later.
A test compound was added to a culture liquid containing A549/OPNluc cells to observe its influence on the amount of luciferase expressed in the cells. Here, it can be considered that when the test compound has cytotoxity or cell growth-suppressing effect, the total expression level of luciferase is reduced due to a reduction in the number of living cells that depends on the concentration of the test compound, and therefore the luciferase expression inhibitory effect of the test compound under control of OPN promoter cannot be properly evaluated. For this reason, WST assay for quantification of cell proliferation ability or cell viability by colorimetric measurement was first performed to determine IC50 (concentration for 50% inhibition of cell growth) of the test compound for cell growth. Then, luciferase activity measurement was performed to determine EC50 (concentration for 50% inhibition of luciferase expression) of the test compound for luciferase expression under control of OPN promoter.
A549/OPNluc cells were suspended in DMEM medium containing 10% fetal calf serum (FCS) and 1% penicillin/streptomycin (P/S) at 3×10^4 cells/mL to obtain a cell suspension, and 100 μL of the cell suspension was dispensed into each well of a 96-well plate. In order to perform the assay in triplicate, 3 wells were prepared for a control group and 3 wells were prepared for each test compound-treated group at each concentration. After the dispensing, the 96-well plate was incubated in a CO2 incubator (at 37° C. and 5% CO2) for 24±4 hours.
The test compound was dissolved in dimethylsulfoxide (DMSO) to obtain a 50 mmol/L solution, and the test compound solution was stored at −80° C. The test compound solution was diluted with DMSO in 2-fold dilution series (usually, in the range of 0.31 mmol/L to 20 mmol/L) to prepare test compound solutions whose concentration varied by two fold for WST assay.
Only DMSO (control) or the diluted test compound (sample) solution was dispensed in an amount of 0.5 μL into each well containing the cell suspension (200-fold dilution). The solution in each well was mixed with a vortex mixer, and then the 96-well plate was incubated in a CO2 incubator (at 37° C. and 5% CO2) for 48±4 hours. Then, 10 μL of Premix WST-1 Reagent (TAKARA BIO INC.) was added to each well. The solution in each well was mixed with a vortex mixer, and then the 96-well plate was incubated at 37° C. and 5% CO2. After 60 minutes or 120 minutes, absorbance values (450 nm) were measured using a microplate reader (Bio-Rad; Benchmark or Thermo Scientific; Varioskan Flash).
The absorbance values of the control wells and the absorbance values of the sample wells at each concentration were input into an Excel file to determine the percentages of absorbance values of the sample wells at each concentration with respect to the average of absorbance values of the control wells. From the determined values, a fitted curve was determined by the method of least squares to calculate IC50.

[1] = test system: human non-small cell lung cancer-derived cell line A549; assay: Matrix-Invasion assay (Matrigel); format: cell-based
Description: As a second test for determining whether or not the physiological function of cells induced by OPN production is suppressed by a test compound, Matrix-Invasion assay was performed. In this assay, cups (inserts) whose bottom was covered with a membrane coated with collagen or laminin (Matrigel, BD Bioscience) as an extracellular matrix component and having φ8 μm pores and a 24-well plate for inserting the inserts were prepared. Cells suspended in a serum-free medium were placed in the inside insert, and a medium containing a substance inducing metastasis and invasion of cells (here, fetal calf serum) was injected into each well of the outside 24-well plate to determine the number of cells passing through the Matrigel-coated membrane of the insert and coming into the outside well.
Specifically, a fluorescent dye was introduced into A549 cells invading outside the membrane, and then the cells were separated from the membrane to measure their fluorescence intensity. At the same time, a fluorescent dye was introduced also into a known number of cells for preparing a calibration curve, and a calibration curve was prepared from their fluorescence intensity. Then, the number of invading cells of a test sample containing an unknown number of cells was determined from the fitted curve.
Cancer cells produce OPN by stimulation of fetal calf serum added to the outside medium. However, when OPN is present in the culture liquid, the cells produce Matrix Metalloproteinase (MMP) that is a collagen-degrading enzyme so that Matrigel is dissolved, and in addition, the cells transfer to the outside well due to their improved migration capacity. […]
Cells of a human non-small cell lung cancer-derived cell line A549 were suspended in DMEM medium containing 10% FCS and 1% P/S at 1.8×10^5 cells/mL to obtain a cell suspension. […] This day was counted as Day 0 of operation. […]

In the case of `CCCCCCCCCCCC(=O)[C@H]1C(=O)O[C@@H](C)C[C@@H]1C` [Chemical formula 3], the IC50 (A549/OPNluc cells) is reported as 56.2 µM, the “total number of invading cells vs control group” value ([1]; 25 μmol/L, 48±4 hours) is reported as “no significant difference” and the “total number of invading cells relative to control group” value ([1]; 50 μmol/L, 48±4 hours) is reported as “about half”. The “suppression of matrix invasion vs control group” value ([1]; A549 cells, 50 μmol/L, significance level less than 1%) was “significantly suppressed”.

— patent publication US9463188B2, “Osteopontin production inhibitor containing dictyopyrone derivative or dihydrodictyopyrone derivative as active ingredient” (TOHOKU UNIVERSITY, priority 2013, dated 2016)
